Where “and” joins values, the source holds several entries; their conditions need not be identical. Equal values may be shown once. Read-outs that look alike come from different tables or passages of the source.
Experiments:
SphK1 WT = molecular target: T1, SphK1 WT (Homo sapiens, UniProt Q9NYA1); experiment: filter binding assay of [3H] acetyl-CoA to SphK1 (Supplementary Fig 1f,g); settings: for Km: read-out: KM of acetyl-CoA binding to SphK1
T1 construct: His (N); made in house
Description: Single point mutations in SphK1 (R56A, R57A, R24A, R185A, D178A, and F192A) and COX2 (S565A, N181A, T564A, and S567A) were generated using the In-Fusion Cloning Kits (Clontech) and ORF cDNA expression plasmids of human SphK1 and COX2 gene (Sino Biological Inc, HG15679-NH and HG12036-NH), according to the manufacturer’s instructions. The forward and reverse primers described in Supplementary Table 4. The SphK1 WT, SphK1 mutants, COX2 WT, and COX2 mutant plasmids were transformed in the One shot TOP 10 competent cell (Invitrogen). The bacteria were grown in Luria-Bertani (LB, Invitrogen) plates supplemented with 50 μg ml^−1 kanamycin (Sigma-Aldrich) at 37 °C. The bacterial cell pellets were resuspended in lysis buffer containing 20 mM sodium phosphate (GE Healthcare), 500 mM NaCl (GE Healthcare), 20 mM imidazole (pH 7.4) (GE Healthcare), 0.2 mg ml^−1 lysozyme (Sigma-Aldrich), 20 μg ml^−1 DNase I (Roche), 1 mM MgCl2 (Sigma-Aldrich), and 1 mM PMSF (Sigma-Aldrich) before being lysed by sonication and clarified by centrifugation at 15,493×g for 10 min. Proteins were purified from the soluble fraction using His-Spin Trap columns (GE Healthcare) and the binding and acetylation assays were performed.
Briefly, SphK1 WT and mutant enzymes (1 mU) were resuspended in 100 μl reaction buffer (20 mM HEPES; pH 7.4, 50 mM NaCl, 10 mM MgCl2, 1 mM EGTA, 0.02% Triton-X100, and 100 μM sphingosine, all from Sigma-Aldrich). […] Briefly, COX2 WT and mutant enzymes (1 mU) were resuspended in 100 μl reaction buffer (20 mM HEPES; pH 7.4, 50 mM NaCl, 10 mM MgCl2, 1 mM EGTA, and 0.02% Triton-X100, all from Sigma-Aldrich). Reactions were initiated by adding [^14C] N-AS (1–200 μM (0.1–20 μCi), ARC UK Ltd, ARC-1024) and incubated at 37 °C for 1 h. The reactions were terminated by adding 100 μl of ice-cold reaction buffer containing 5 mM cold N-AS and immediately filtered through P30 filtermat (Perkin-Elmer), followed by five washes.
The binding velocity was plotted and the Kcat and KM values were calculated from the Michaelis-Menten analysis using the Sigma-plot program (ver 10.0, Systat software Inc.).

SphK1 = molecular target: T2, SphK1 (Homo sapiens, UniProt Q9NYA1); experiment: S1P formation by SphK1 (UPLC, Supplementary Fig 1e); type: biochemical; settings: acetyl-CoA 0-50 mM
T2 construct: purchased Cayman 10348
T2 sequence (Q9NYA1 whole entry): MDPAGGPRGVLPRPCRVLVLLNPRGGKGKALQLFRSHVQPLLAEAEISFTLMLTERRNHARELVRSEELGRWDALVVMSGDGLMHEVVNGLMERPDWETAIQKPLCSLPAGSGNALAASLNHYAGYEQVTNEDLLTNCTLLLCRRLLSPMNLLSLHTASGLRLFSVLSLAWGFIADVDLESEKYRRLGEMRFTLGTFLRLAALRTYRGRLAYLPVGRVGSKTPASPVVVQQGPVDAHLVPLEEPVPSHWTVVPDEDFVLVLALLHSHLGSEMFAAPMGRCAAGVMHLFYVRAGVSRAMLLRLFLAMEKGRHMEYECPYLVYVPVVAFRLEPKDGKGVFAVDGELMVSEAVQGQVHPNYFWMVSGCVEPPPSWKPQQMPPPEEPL
Protocol: We confirmed S1P formation through SphK1 enzymatic activity measurements as previously described[11] using a UPLC (Ultra performance liquid chromatography) system (Waters). […] After pre-incubation, 1 mM ATP (Amresco, 0220) was added the mixture, and it was incubated at 37 °C for 1 h. The […] reactions were stopped by adding 53 μl of ethanol, and centrifuged at 15,493×g for 5 min. Thirty microliter of the supernatant was then transferred to a sampling glass vial and 5 μl was applied onto a UPLC system for analysis. S1P formation was followed as phosphorylation of (7-nitro-2-1,3-benzoxadiazol-4-yl)-d-erythro (NBD)-sphingosine (Avanti Polar Lipids) to NBD-S1P. Quantification was achieved by comparison with NBD-S1P (Avanti Polar Lipids) standards.

APP/PS1 mice = experiment: cerebral amyloid angiopathy (CAA) quantification (Fig 6f); type: in vivo, mouse; settings: Cortex; APP/PS1 + N-AS; individual values
Protocol: Thioflavin S (Sigma-Aldrich) staining was carried out according to previously described procedures. We used 6E10 (mouse, 1:100, Signet, SIG39300), anti-20G10 (mouse, 1:1000, provided by D. R. Howlett, GlaxoSmithKline, Harlow, Essex, UK) for Aβ42, anti-G30 (rabbit, 1:1000, provided by D. R. Howlett) for Aβ40, SMA (mouse, 1:400, Sigma-Aldrich, A2547), AT8 (mouse, 1:500, Thermo Fisher Scientific, MN1020), Caspase-3 (mouse, 1:200, Novus Biologicals, NB100-56708), ac-S565 (rabbit, 1:100), COX2 (mouse, 1:250, Thermo Fisher Scientific, 35-8200), Iba1 (rabbit, 1:500, Wako, 019-19941 and goat, Abcam, ab5076), NeuN (mouse, 1:500, Millipore, MAB177), GFAP (rabbit, 1:500, Dako, N1506 and chicken, 1:500, Abcam, ab4674), and Lamp1 (mouse, 1:200, Abcam, ab24170). The sections were analyzed with a laser-scanning confocal microscope (FV3000; Olympus) or with a BX51 microscope (Olympus). MetaMorph software (Molecular Devices) was used to quantification. Three-dimensional reconstruction of microglia was recorded and analyzed using IMARIS software (Bitplane)[11]. For the analysis of age-dependent microglial COX2^+ CX3CR1^+ cells in WT and APP/PS1 mice, COX2 (rabbit, 1:100, Abcam, ab15191) and CX3CR1 (mouse, 1:100, BioLegend, 149008) antibody were used and the images were acquired on Alexa 488 and APC Channel with performed using Operetta CLS and Analysis Software 4.5 (Perkin-Elmer). […]

[1] = ATP 1000 µM, 100 µM sphingosine
[2] = SphK1 (WT), Supplementary Fig 1g

T1 sequence (Q9NYA1 whole entry): as above

Row | SMILES | Kcat of acetyl-CoA binding to SphK1 (SphK1 WT; ATP 0 µM, 100 µM sphingosine) | Kcat of acetyl-CoA binding to SphK1 (SphK1 WT; ATP 10 µM, 100 µM sphingosine) | Kcat of acetyl-CoA binding to SphK1 (SphK1 WT; ATP 100 µM, 100 µM sphingosine) | Kcat of acetyl-CoA binding to SphK1 (SphK1 WT; [1]) | Kcat of acetyl-CoA binding to SphK1 (SphK1 WT; [2]) | Km (SphK1 WT; ATP 0 µM, 100 µM sphingosine) | Km (SphK1 WT; ATP 10 µM, 100 µM sphingosine) | Km (SphK1 WT; ATP 10 µM, 100 µM sphingosine, listed as acetyl-CoA) | Km (SphK1 WT; ATP 100 µM, 100 µM sphingosine) | Km (SphK1 WT; ATP 100 µM, 100 µM sphingosine, listed as acetyl-CoA) | Km (SphK1 WT; [1]) | Km (SphK1 WT; ATP 1000 µM, 100 µM sphingosine, listed as acetyl-CoA) | Km (SphK1 WT; [2]) | S1P formation by SphK1, in words (SphK1) | amyloid angiopathy (CAA) quantification (APP/PS1 mice)
1 | CC(=O)SCCNC(=O)CCNC(=O)[C@H](O)C(C)(C)COP(=O)(O)OP(=O)(O)OC[C@H]1O[C@@H](n2cnc3c(N)ncnc32)[C@H](O)[C@@H]1OP(=O)(O)O [Acetyl-CoA, acetyl-CoA] | 0.0169 min⁻¹ | 0.0161 min⁻¹ | 0.0110 min⁻¹ | 0.0083 min⁻¹ | 0.0173 min⁻¹ | 11 µM | 24.5 µM | 24.5 µM | 35.2 µM | 35.2 µM | 39 µM | 39 µM | 10.5 µM | inhibited S1P formation in a concentration dependent fashion | –
2 | CCCCCCCCCCCCC/C=C/[C@@H](O)[C@H](CO)NC(C)=O [N-AS, N-((2S,3R,E)-1,3-Dihydroxyoctadec-4-en-2-yl)acetamide] | – | – | – | – | – | – | – | – | – | – | – | – | – | – | 0.11 and 0.15 and 0.12 and 0.1 and 0.17 and 0.13

From article PMC7217877, “N-AS-triggered SPMs are direct regulators of microglia in a model of Alzheimer’s disease” (Nature Communications, 2020)
